Measured values published in the supplement of paper PMC11208160.

Assay: recombinant UMI read abundance after kanamycin selection (control-corrected) (log10(CPM+1)); higher = more efficient recombination; extreme values may be limits of the assay; sequences stand for … in AGTGCAGAGAAAATCGGCCAGTTTTCTCTGCCTGCAGTCCGCATGCCGTGGGACCCCTTGGGTTCTAACCTGTTGCCTAGATTTATGCAGCGGACTGCCTTTCTCCCAAAGTGATAAACCGG…AGGTTGGTTTCACT; site = the 11-nt donor
Summary of the method: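 For the IS621 bridge recombinase, a pooled Escherichia coli screen tested donor and donor-binding-loop pairs. Cells received the pair library together with a target plasmid encoding a fixed target and T7-inducible recombinase, then went onto IPTG (0.07 mM) plus kanamycin or unselected plates in duplicate. After PCR across the donor–target junction and sequencing, recombinant UMI counts were normalized to CPM, averaged, and scaled by control-derived factors. Each value is given as log10(CPM+1).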

Row | Sequence | recombinant UMI read abundance (log10)
1 | ACCTGGACATGGACCGGTTTTCCCGGTAATCCGTATTTGGG (site ACCTGGACTCC) | 0.0305
2 | ACCTGGACATGGACCGGTTTTCCCGGTAATCCGTATTTGGG (site ACCTTGACTCC) | 0.0114
3 | ACCTTCGCATGGACCGGTTTTCCCGGTAATCCGTATTTGGC (site ACCTTCGCTGC) | 1.56
4 | ACCTTTCCATGGACCGGTTTTCCCGGTAATCCGTATTTGCT (site ACCTTTCCTAG) | 0
5 | ACGAAAACATGGACCGGTTTTCCCGGTAATCCGTATTTGTT (site ACGAAAACTAA) | 1.37
6 | ACGAAACCATGGACCGGTTTTCCCGGTAATCCGTATTTGGA (site ACGAAACCTTC) | 0
7 | ACGAAGGCATGGACCGGTTTTCCCGGTAATCCGTATTTGAC (site ACGAAGGCTGT) | 2.46
8 | ACGAAGTCATGGACCGGTTTTCCCGGTAATCCGTATTTGCA (site ACGAAGTCTTG) | 3.09
9 | ACGAAGTCATGGACCGGTTTTCCCGGTAATCCGTATTTGCA (site AGGAAGACTTG) | 0
10 | ACGACGGCATGGACCGGTTTTCCCGGTAATCCGTATTTGAA (site ACGACGGCTTT) | 1.59
11 | ACGAGGTCATGGACCGGTTTTCCCGGTAATCCGTATTTGAC (site ACGAGGTCTGT) | 2.91
12 | ACGCAACCATGGACCGGTTTTCCCGGTAATCCGTATTTGCT (site ACGCAACCTAG) | 0
13 | ACGCCGTCATGGACCGGTTTTCCCGGTAATCCGTATTTGGT (site ACGCCGTCTAC) | 1.61
14 | ACGCGAACATGGACCGGTTTTCCCGGTAATCCGTATTTGTC (site ACACGAACTGA) | 2.62
15 | ACGCGAACATGGACCGGTTTTCCCGGTAATCCGTATTTGTC (site ACCCGAACTGA) | 0
16 | ACGCGAACATGGACCGGTTTTCCCGGTAATCCGTATTTGTC (site ACGCGAACTGA) | 2.38
17 | ACGCGAACATGGACCGGTTTTCCCGGTAATCCGTATTTGTC (site ACTCGAACTGA) | 0
18 | ACGCGTACATGGACCGGTTTTCCCGGTAATCCGTATTTGGA (site ACGCGTACTTC) | 1.12
19 | ACGGAGACATGGACCGGTTTTCCCGGTAATCCGTATTTGCA (site ACGGAGACTTG) | 2.64
20 | ACGGAGACATGGACCGGTTTTCCCGGTAATCCGTATTTGCA (site AGGAAGACTTG) | 0
21 | ACGGCCTCATGGACCGGTTTTCCCGGTAATCCGTATTTGGT (site ACGGCCTCTAC) | 2.1
22 | ACGGCGTCATGGACCGGTTTTCCCGGTAATCCGTATTTGTC (site ACGGCGTCTGA) | 3.22
23 | ACGGGGCCATGGACCGGTTTTCCCGGTAATCCGTATTTGCA (site ACGGGGCCTTG) | 0
24 | ACGGTGCCATGGACCGGTTTTCCCGGTAATCCGTATTTGAA (site ACGGTGCCTTT) | 0.00366
25 | ACGTACACATGGACCGGTTTTCCCGGTAATCCGTATTTGCA (site ACGTACACTTG) | 2.71

Row | Sequence | recombinant UMI read abundance (log10)
26 | ACGTCATCATGGACCGGTTTTCCCGGTAATCCGTATTTGTT (site ACGTCATCTAA) | 1.69
27 | ACGTCGACATGGACCGGTTTTCCCGGTAATCCGTATTTGTT (site ACGTCGACTAA) | 0.654
28 | ACGTGAGCATGGACCGGTTTTCCCGGTAATCCGTATTTGCC (site ACGTGAGCTGG) | 2.7
29 | ACGTGGACATGGACCGGTTTTCCCGGTAATCCGTATTTGTG (site ACGTGGACTCA) | 1.53
30 | ACGTTAGCATGGACCGGTTTTCCCGGTAATCCGTATTTGAT (site ACGTTAGCTAT) | 2.62
31 | ACTAAACCATGGACCGGTTTTCCCGGTAATCCGTATTTGCG (site ACTAAACCTCG) | 0
32 | ACTAAATCATGGACCGGTTTTCCCGGTAATCCGTATTTGGC (site ACTAAATCTGC) | 0.218
33 | ACTAATACATGGACCGGTTTTCCCGGTAATCCGTATTTGGC (site ACTAATACTGC) | 0.399
34 | ACTAATACATGGACCGGTTTTCCCGGTAATCCGTATTTGGC (site CCTAATACTGC) | 0
35 | ACTAATACATGGACCGGTTTTCCCGGTAATCCGTATTTGGC (site GCTAATACTGC) | 1.02
36 | ACTAATACATGGACCGGTTTTCCCGGTAATCCGTATTTGGC (site TCTAATACTGC) | 1.03
37 | ACTACAACATGGACCGGTTTTCCCGGTAATCCGTATTTGTG (site ACTACAACTCA) | 0.339
38 | ACTACTGCATGGACCGGTTTTCCCGGTAATCCGTATTTGGT (site ACTAATGCTAC) | 0.0144
39 | ACTACTGCATGGACCGGTTTTCCCGGTAATCCGTATTTGGT (site ACTACTGCTAC) | 0.247
40 | ACTACTGCATGGACCGGTTTTCCCGGTAATCCGTATTTGGT (site ACTAGTGCTAC) | 0.0166
41 | ACTACTGCATGGACCGGTTTTCCCGGTAATCCGTATTTGGT (site ACTATTGCTAC) | 0.00304
42 | ACTAGCACATGGACCGGTTTTCCCGGTAATCCGTATTTGAG (site ACTAGAACTCT) | 0.495
43 | ACTAGCACATGGACCGGTTTTCCCGGTAATCCGTATTTGAG (site ACTAGCACTCT) | 1.48
44 | ACTAGCACATGGACCGGTTTTCCCGGTAATCCGTATTTGAG (site ACTAGGACTCT) | 0.0266
45 | ACTAGCACATGGACCGGTTTTCCCGGTAATCCGTATTTGAG (site ACTAGTACTCT) | 0.517
46 | ACTAGCTCATGGACCGGTTTTCCCGGTAATCCGTATTTGTT (site ACTAGCTCTAA) | 0.346
47 | ACTAGGACATGGACCGGTTTTCCCGGTAATCCGTATTTGCT (site ACTAGGACTAG) | 2.36
48 | ACTAGGGCATGGACCGGTTTTCCCGGTAATCCGTATTTGAG (site ACTAGGGCTCT) | 1.52
49 | ACTAGTGCATGGACCGGTTTTCCCGGTAATCCGTATTTGAT (site ACTAGTGCTAA) | 0.0209
50 | ACTAGTGCATGGACCGGTTTTCCCGGTAATCCGTATTTGAT (site ACTAGTGCTAC) | 0.0203

Row | Sequence | recombinant UMI read abundance (log10)
51 | ACTAGTGCATGGACCGGTTTTCCCGGTAATCCGTATTTGAT (site ACTAGTGCTAG) | 0.00388
52 | ACTAGTGCATGGACCGGTTTTCCCGGTAATCCGTATTTGAT (site ACTAGTGCTAT) | 2.1
53 | ACTAGTGCATGGACCGGTTTTCCCGGTAATCCGTATTTGCT (site ACTAGTGCTAA) | 0.335
54 | ACTAGTGCATGGACCGGTTTTCCCGGTAATCCGTATTTGCT (site ACTAGTGCTAC) | 0.00908
55 | ACTAGTGCATGGACCGGTTTTCCCGGTAATCCGTATTTGCT (site ACTAGTGCTAG) | 1.37
56 | ACTAGTGCATGGACCGGTTTTCCCGGTAATCCGTATTTGCT (site ACTAGTGCTAT) | 0.0101
57 | ACTATTCCATGGACCGGTTTTCCCGGTAATCCGTATTTGGT (site ACTATTCCTAC) | 0.00382
58 | ACTCAACCATGGACCGGTTTTCCCGGTAATCCGTATTTGGT (site ACTCAACCTAC) | 0.00884
59 | ACTCCGCCATGGACCGGTTTTCCCGGTAATCCGTATTTGTG (site ACTCCGCCTCA) | 0.0108
60 | ACTCCGTCATGGACCGGTTTTCCCGGTAATCCGTATTTGAT (site ACTCCGTCTAT) | 0.697
61 | ACTCGCACATGGACCGGTTTTCCCGGTAATCCGTATTTGAC (site ACTCGCACTGT) | 2.68
62 | ACTCGGTCATGGACCGGTTTTCCCGGTAATCCGTATTTGTT (site ACTCGGTCTAA) | 0.936
63 | ACTCGTGCATGGACCGGTTTTCCCGGTAATCCGTATTTGAC (site ACTCGTGCTGT) | 2.56
64 | ACTCGTGCATGGACCGGTTTTCCCGGTAATCCGTATTTGAG (site ACTCGTGCTCT) | 1.4
65 | ACTCTTTCATGGACCGGTTTTCCCGGTAATCCGTATTTGTT (site ACTCTTTCTAA) | 0.0432
66 | ACTGAGGCATGGACCGGTTTTCCCGGTAATCCGTATTTGAA (site ACTGAGGCTTT) | 1.73
67 | ACTGCAGCATGGACCGGTTTTCCCGGTAATCCGTATTTGCA (site ACTGCAGCTTG) | 1.21
68 | ACTGTACCATGGACCGGTTTTCCCGGTAATCCGTATTTGCA (site ACAGTATCTTG) | 0.00951
69 | ACTGTACCATGGACCGGTTTTCCCGGTAATCCGTATTTGCA (site ACTGTACCTTG) | 0
70 | ACTGTGTCATGGACCGGTTTTCCCGGTAATCCGTATTTGAC (site AATGTGTCTGT) | 0
71 | ACTGTGTCATGGACCGGTTTTCCCGGTAATCCGTATTTGAC (site ACTGTGTCTGT) | 0
72 | ACTGTGTCATGGACCGGTTTTCCCGGTAATCCGTATTTGAC (site AGTGTGTCTGT) | 0
73 | ACTGTGTCATGGACCGGTTTTCCCGGTAATCCGTATTTGAC (site ATTGTGTCTGT) | 0
74 | ACTTAATCATGGACCGGTTTTCCCGGTAATCCGTATTTGTA (site ACTTAATCTTA) | 2.15
75 | ACTTAGTCATGGACCGGTTTTCCCGGTAATCCGTATTTGCC (site ACTTAGTCTGG) | 2.47
